Experimental data: PMC4949444 (Scientific Reports, 2016)

Legend:
PPARγ = format: cell-based; settings: HEK293, GAL4-PPARγ + GAL4-luc, 6 hours
Protocol: The indicated concentrations were tested and results were plotted to obtain the polynomial trend on a logarithmic range. IC50 values are indicated within the graph. […] HEK293 cells were co-transfected with GAL4-PPARγ and GAL4-luc and incubated with the indicated compound concentrations for 6 hours prior to luciferase activity determination. Results are expressed as the fold induction ± S.D. relative to untreated control. […] All experiments are shown as mean ± S.D. from at least three independent experiments. Statistics: *^,#,†p < 0.05, **^,##,††p < 0.01 and ***^,###p < 0.001. […] To study PPARγ transcriptional activity HEK293 cells were seeded in 24-well plates and transiently co-transfected with the expression vector GAL4-PPARγ and the luciferase reporter vector GAL4-luc using Roti-Fect (Carl Roth, Karlsruhe, Germany) following the manufacturer’s instructions. To correct for transfection efficacy, 100 ng Renilla luciferase (pRL-CMV) was also cotransfected. After stimulation, the luciferase activities were quantified using Dual-Luciferase Assay (Promega, Madison, WI, USA).

CB1 receptor = biological target: T1, CB1 receptor (Homo sapiens, UniProt P21554); test: CB1 receptor binding, [3H]CP55940 competition; settings: data not shown; read-out: predicted Ki, CB1 receptor
T1 construct: purchased Perkin-Elmer Life and Analytical Sciences, Boston, MA; host or cells: HEK293 EBNA cells stably expressing the receptor
Protocol: (§1) CB1 and CB2 receptor binding affinities were determined by competition studies using [^3H]CP55940 as radioligand and commercial membrane preparations of HEK293 EBNA cells stably expressing the respective receptor type (Perkin-Elmer Life and Analytical Sciences, Boston, MA), following a procedure previously described.

CB2 receptor = biological target: T2, CB2 receptor (Homo sapiens, UniProt P34972); test: CB2 receptor binding, [3H]CP55940 competition; settings: data not shown; read-out: predicted Ki, CB2 receptor
T2 construct: purchased Perkin-Elmer Life and Analytical Sciences, Boston, MA; host or cells: HEK293 EBNA cells stably expressing the receptor
T2 sequence (P34972 whole entry): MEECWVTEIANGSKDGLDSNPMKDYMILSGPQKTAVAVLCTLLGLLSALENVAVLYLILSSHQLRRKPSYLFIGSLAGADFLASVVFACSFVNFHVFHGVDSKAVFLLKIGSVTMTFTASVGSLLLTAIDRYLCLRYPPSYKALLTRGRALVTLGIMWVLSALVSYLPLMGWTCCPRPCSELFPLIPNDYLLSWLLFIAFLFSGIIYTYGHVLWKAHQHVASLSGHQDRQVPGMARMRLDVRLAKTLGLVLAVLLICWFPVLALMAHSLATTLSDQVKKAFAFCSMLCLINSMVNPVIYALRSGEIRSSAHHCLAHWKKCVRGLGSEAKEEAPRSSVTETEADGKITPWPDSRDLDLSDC
Protocol: as §1

[1] = Cysteamine recovery assay (thiol trapping)
Protocol: cysteamine to form polar and not extractable adducts.
(§2) Determination of ROS: N2a cells were seeded at 25x 10^3 cells/ml in 96-well plates and incubated with 0.25 ȝM 5-(and-6 )-chloro meth yl-2ƍ,7ƍ-dichlorodihydrofluorescein diacetate acet yl ester (C M-H 2 DCFDA) for 20 minutes at 37°C. Then, the cells were treated with either VCE-003 or VCE-003.2 for 2 hours. Cells exposed to pro-oxidant tert-Butyl h ydroperoxide (TBHP) were used as positive control. H 2 DCFDA oxidation was detected using an Incuc yteTM Live-Cell Imaging S ystem (Hertfordshire, UK).
Nrf2 transcriptional assay: To study Nrf2 transcriptional activity N2a cells were seeded (105/ml) in 24-well plates and transientl y transfected with the plasmid NQO1-ARE-Luc using Roti©-Fect following the manufacturer’s instructions (Carl Roth, Karlsruhe, German y). After 24 hours, cells were incubated wi th the compounds at the concentrations indicated during 6 hours and the luciferase activit y was determined using an Autolumat LB 953 (EG&G Berthold, Bad Wildbad, Germany). Protein content was determined b y the Bradford method to calculate R LU/Pg of protein and the results were expressed as a fold induction over untreated cells.

N2a cells = test: Reactive oxygen species production in N2a cells (CM-H2DCFDA); format: cell-based; settings: 2 hours
Protocol: as §2
Supplementary Figure S1. Non-elect rophilic activity for VCE-003.2. (a) Reactive ox ygen species production. N2a cells were stained with CM-H2DCFDA and treated with VCE-003 or VCE-003.2 for 2 hours. Then, reactive ox ygen sp ecies were measured b y In cu c yt e TM Liv e-Cell Im agin g S ystem. Results are ex pressed as m ean of t otal integrated intensity (ROS positive cells) ± S.D. (b) Effect on Nrf2 transcriptional activity.
VCE-003 treatment vers us Vehicle treated cells.

HiB5 cells [2] = test: HiB5 neural progenitor cell viability (MTT); format: cell-based
Protocol: Figure 3 Prosurvival effect of VCE-003.2 in hippocampal neural progenitor HiB5 cells. (a,b) HiB5 cells in proliferative and differentiation conditions respectively were incubated with increasing concentrations of VCE-003.2 and cell viability was assessed using the MTT test after 48 h. (c) Cell viability and ERK1/2 phosphorylation status (activation) was determined in VCE-003.2-treated cells in the absence or presence of GW9662 (5 μM). (d) VCE-003.2 time-dependent regulation of the ERK, Akt and mTORC1 signaling pathways were determined by incubation with anti-phospho-ERK, phospho-Akt and phospho-S6 antibodies. Loading control was performed with α-tubulin antibody. Representative western blots and densitometry quantification of three independent experiments are shown. Values are expressed as means ± S.D. *p < 0.05; **p < 0.01 vs. Vehicle; ^#p < 0.05 vs. VCE-003.2.
The HiB5 hippocampal progenitor cell line (kindly provided by Prof. Z. Kokaia, Lund Stem Cell Center, Sweden) was grown as described[46] in DMEM supplemented with 2 mM glutamine, 1% penicillin/streptomycin and 10% (v/v) fetal calf serum (FCS; Lonza, Switzerland). HiB5 cell cultures were incubated in 5% CO2 at 33 °C, the proliferation-permissive temperature of the oncogenic tsA58 allele of the SV40 large T antigen. Incubation at 37 °C loss of proliferative capacity and neural differentiation. Cell viability was determined after 24 h using the 3-[4,5-dimethylthiazol-2-yl]-2,5-diphenyltetrazolium bromide (MTT) […]. Immortalized mouse striatal STHdh cells (kindly provided by S. Gines, U. Barcelona, Spain) were cultured as described. Cell were transiently transfected with 10 μg doxycycline-inducible CFP-huntingtin-94Q using Amaxa´s Nucleofector following the instructions of the manufacturer (Lonza). In addition STHdh^Q7/Q7 and STHdh^Q111/Q111 expressing endogenous levels of full-length huntingtin with 7 glutamines or 111 glutamines in the protein N-terminal domain, respectively, were used. […]

HiB5 cells [3] = test: Quinolinic acid-induced cell death and apoptosis in HiB5 cells; format: cell-based
Protocol: (§3) Figure 4 In vitro neuroprotective action of VCE-003.2. (a) HiB5 cells were treated with quinolinic acid (QA; 2,5 mM) in the presence or the absence of VCE-003.2 (50 and 250 nM) and cell viability was determined after 24 h by the MTT assay. (b) QA-induced apoptosis measured by cleaved caspase 3 immunostaining (upper panel) of differentiating HiB5 cells was quantified in the presence or absence of VCE-003.2 (250 nM). Cell counts were referred to total cell nuclei counterstained with DAPI and c-caspase3^+ cell quantification is shown in the lower panel. […]. (d) Aggregation of mut-Htt was assessed by fluorescence microscopy in immortalized striatal STHdh transfected cells with a CFP-tagged expression vector of mutant huntingtin (mut-Htt) and counterstained with fluorescent phalloidin (upper panel). […]. Results are representative of three independent experiments. Values are expressed as means ± S. D. *p < 0.05 and ***p < 0.001 vs. Vehicle; ^#p < 0.05 ^##p < 0.01 vs. QA. […]
(§4) The HiB5 hippocampal progenitor cell line (kindly provided by Prof. Z. Kokaia, Lund Stem Cell Center, Sweden) was grown as described[46] in DMEM supplemented with 2 mM glutamine, 1% penicillin/streptomycin and 10% (v/v) fetal calf serum (FCS; Lonza, Switzerland). […] Cell viability was determined after 24 h using the 3-[4,5-dimethylthiazol-2-yl]-2,5-diphenyltetrazolium bromide (MTT) tesresults int. […]

STHdh^Q7/Q7 = test: Serum deprivation survival of STHdh Q7/Q7 striatal neuroblasts (MTT); format: cell-based, mouse; settings: STHdh Q7/Q7, 72 h
Protocol: as §3, §4

[4] = tested on: osteoblast-differentiating MSCs; test: Osteoblast differentiation of human mesenchymal stem cells; settings: osteoblastogenic medium, 14 days of differentiation
Description: The Reina Sofia University Hospital Review Board approved this study and the procedures followed were in accordance with the ethical standards of the ethic committee from Hospital Reina Sofía and with the Declaration of Helsinki. Bone marrow donors were recruited by the Haematology Service. All subjects gave their informed consent so that the bone marrow aliquots extracted for clinical purposes could also be used for mesenchymal bone marrow research. […] Adipogenic and osteoblast differentiation was performed as described[22]. Treatment with RZG and VCE-003.2 started at the same time as the differentiation process. […] The images captured with the light microscope were analyzed with the ImageJ Software (NIH; Bethesda, MD, USA).
Cells were collected at day 14 of differentiation and total RNA was extracted using the High Pure RNA Isolation kit (Roche Diagnostics). The total amount of RNA extracted was quantified using NanoDrop 2000 (Thermo Fisher Scientific Inc). Total RNA (1 μg) was retrotranscribed using the iScriptTM cDNA Synthesis Kit (Bio-Rad; Hercules, CA, USA), and the cDNA generated was analyzed by real-time PCR, using the iQ^TM SYBR Green Supermix (Bio-Rad; Hercules, CA, USA). Real-time PCR to quantify the mRNA of osteoblastic and adipocityc markers was performed using a CFX96 Real-time PCR Detection System (Bio-Rad; Hercules, CA, USA). […]

T1 sequence (P21554 whole entry): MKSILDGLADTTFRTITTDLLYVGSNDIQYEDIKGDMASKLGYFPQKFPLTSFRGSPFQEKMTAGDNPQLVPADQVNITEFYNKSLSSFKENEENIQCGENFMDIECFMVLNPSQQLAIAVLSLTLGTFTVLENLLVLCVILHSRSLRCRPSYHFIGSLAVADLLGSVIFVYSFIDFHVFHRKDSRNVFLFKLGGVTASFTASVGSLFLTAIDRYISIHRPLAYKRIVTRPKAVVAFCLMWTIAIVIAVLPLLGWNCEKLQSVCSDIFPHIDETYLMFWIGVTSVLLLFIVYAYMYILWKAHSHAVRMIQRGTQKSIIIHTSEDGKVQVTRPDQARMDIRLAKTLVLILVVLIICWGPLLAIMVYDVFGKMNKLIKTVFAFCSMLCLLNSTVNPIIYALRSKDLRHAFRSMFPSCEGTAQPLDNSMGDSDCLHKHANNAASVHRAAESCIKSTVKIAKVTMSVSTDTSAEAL

SMILES: CCCCCC1=C(NCC)C(=O)C(C/C=C(\C)CCC=C(C)C)=C(O)C1=O [VCE-003.2]
- PPARγ transcriptional activity (transactivation) (PPARγ): induced PPARγ transactivation in a concentration-dependent manner
- Ki (CB1 receptor): > 40 µM
- Ki (CB2 receptor): > 40 µM
- recovery after treatment with cysteamine (thiol-trapping reactivity) [1]: recovered unscathed
- induction of reactive oxygen species (ROS) (N2a cells): none of these bioactivities were induced
- cell viability, proliferative conditions (HiB5 cells [2]; HiB5, 50 nM to 50 μM, MTT): not toxic even at the highest concentrations employed
- cell viability during neuronal differentiation (HiB5 cells [2]; HiB5, differentiation conditions, increasing concentrations, MTT): exerted a prosurvival activity at lower concentrations, while at high concentrations it was toxic and reduced cell viability
- prosurvival action in presence of PPARγ antagonist (HiB5 cells [2]; VCE-003.2 250 nM + GW9662 5 μM): prevented
- QA-induced NP cell death (HiB5 cells [3]; HiB5, QA 2,5 mM, VCE-003.2 50 and 250 nM, 24 h MTT): fully prevented
- QA-induced apoptosis (cleaved caspase 3) (HiB5 cells [3]; differentiating HiB5, VCE-003.2 250 nM): significantly inhibited
- neuronal viability after serum deprivation (STHdh^Q7/Q7): improved
- expression of osteogenic differentiation markers Runx2, SP7, ALP, IBSP [4]: mild and did not inhibit the expression of osteogenic differentiation markers
